In the assay the target is human TPH1 (Homo sapiens (Human), UniProt P17752). The assay is described as follows: Biochemical in vitro assay using fluorescence readout (TPH1 inhibition).
Setting [1] is: full length human TPH1, 40 μM L-tryptophan, 15° C., 60 minutes, fluorescence at 540 nm, mean if determined several times.
Where [2] appears, read: human TPH1, fluorescence readout.

human TPH1, sequence (P17752 whole entry): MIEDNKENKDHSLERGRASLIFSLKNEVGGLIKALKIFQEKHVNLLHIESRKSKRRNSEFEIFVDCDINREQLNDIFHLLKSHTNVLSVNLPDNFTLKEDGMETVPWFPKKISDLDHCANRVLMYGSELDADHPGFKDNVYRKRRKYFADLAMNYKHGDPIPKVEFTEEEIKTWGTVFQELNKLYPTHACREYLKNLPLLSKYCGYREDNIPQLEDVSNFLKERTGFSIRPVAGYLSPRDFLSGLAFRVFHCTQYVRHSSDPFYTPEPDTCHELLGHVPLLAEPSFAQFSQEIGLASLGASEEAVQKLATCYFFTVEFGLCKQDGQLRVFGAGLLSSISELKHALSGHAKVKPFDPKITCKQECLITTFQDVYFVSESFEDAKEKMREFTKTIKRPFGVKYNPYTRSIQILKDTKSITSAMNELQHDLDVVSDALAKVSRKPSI

On to `Cc1nn2c3c(nc2s1)CCN(C(=O)COc1ccc(NS(C)(=O)=O)nc1Cl)C3c1cc(C(=O)N(C)C)cs1` (stereo not shown) [Example 1.9.4, 5-(6-(2-((2-Chloro-6-(methylsulfonamido)pyridin-3-yl)oxy)acetyl)-2-methyl-5,6,7,8-tetra-hydro-[1,3,4]thiadiazolo[2′,3′:2,3]imidazo[4,5-c]pyridin-5-yl)-N,N-dimethylthiophene-3-carboxamide], for which 32 nM corresponded to half-maximal inhibition under setting [1] (IC50).

`Cc1nn(C)c(C)c1C1c2c(nc3sccn23)CCN1C(=O)COc1ccc(C(F)(F)F)cc1Cl` (stereo not shown) [Example 6.15.2, 2-(2-chloro-4-(trifluoromethyl)phenoxy)-1-(5-(1,3,5-trimethyl-1H-pyrazol-4-yl)-7,8-dihydrothiazolo-[2′,3′:2,3]imidazo[4,5-c]pyridin-6(5H)-yl)ethanone] returned an IC50 under setting [2] of 48 nM.

`CCc1nc(NS(C)(=O)=O)ccc1OCC(=O)N1CCc2nc3sc(C)nn3c2C1c1sc(C)nc1C` (stereo not shown) [Example 1.68.7, N-(5-(2-(5-(2,4-dimethylthiazol-5-yl)-2-methyl-7,8-dihydro-[1,3,4]thiadiazolo[2′,3′:2,3]imidazo[4,5-c]-pyridin-6(5H)-yl)-2-oxoethoxy)-6-ethylpyridin-2-yl)methanesulfonamide]: the IC50 under setting [2] amounted to 11 nM.

`O=C(COc1ccccc1C(F)(F)F)N1CCc2nc3sccn3c2C1c1cccnc1F` (stereo not shown) [Example 6.2.2, 1-(5-(2-fluoropyridin-3-yl)-7,8-dihydrothiazolo[2′,3′:2,3]-imidazo[4,5-c]pyridin-6(5H)-yl)-2-(2-(trifluoromethyl)-phenoxy)ethanone] showed an IC50 under setting [2] of 81 nM.

As for `Cc1nn2c3c(nc2s1)CCN(C(=O)COc1ccc(C(=O)N(C)C)nc1Cl)C3c1cccc(F)c1F` (stereo not shown) [Example 1.62.1, 6-chloro-5-(2-(5-(2,3-difluorophenyl)-2-methyl-7,8-dihydro-[1,3,4]thiadiazolo[2′,3′:2,3]imidazo[4,5-c]pyridin-6(5H)-yl)-2-oxoethoxy)-N,N-dimethylpicolinamide], the IC50 under setting [2] turned out to be 65 nM.

For `CCc1nc(C)ccc1OCC(=O)N1CCc2nc3sccn3c2C1c1c(C)noc1C` (stereo not shown) [Example 6.5.1, 1-(5-(3,5-dimethylisoxazol-4-yl)-7,8-dihydrothiazolo-[2′,3′:2,3]imidazo[4,5-c]pyridin-6(5H)-yl)-2-((2-ethyl-6-methylpyridin-3-yl)oxy)ethanone], under setting [2], half-maximal inhibition (IC50) was put at 117 nM.

`Cc1noc(C)c1C1c2c(nc3sccn23)CCN1C(=O)COc1ccc(Cl)cc1Cl` (stereo not shown) [Example 6.5.2, 2-(2,4-dichlorophenoxy)-1-(5-(3,5-dimethylisoxazol-4-yl)-7,8-dihydrothiazolo[2′,3′:2,3]imidazo[4,5-c]pyridin-6(5H)-yl)ethanone]: inhibition under setting [2] was half-maximal at 61 nM (IC50).

As for `CCc1ncccc1OCC(=O)N1CCc2nc3sc(C)nn3c2C1c1ccc(C2CC2)cc1F` (stereo not shown) [Example 1.6.9, 1-(5-(4-cyclopropyl-2-fluorophenyl)-2-methyl-7,8-dihydro-[1,3,4]thiadiazolo[2′,3′:2,3]imidazo[4,5-c]pyridin-6(5H)-yl)-2-((2-ethylpyridin-3-yl)oxy)ethanone], under setting [2], the IC50 was 457 nM.

`CCc1ncccc1OCC(=O)N1CCc2nc3sc(C)nn3c2C1c1coc(-c2ccccc2)n1` (stereo not shown) [Example 1.12.2, 2-((2-ethylpyridin-3-yl)oxy)-1-(2-methyl-5-(2-phenyloxazol-4-yl)-7,8-dihydro-[1,3,4]thiadiazolo[2′,3′:2,3]imidazo[4,5-c]pyridin-6(5H)-yl)ethanone]: the midpoint of inhibition under setting [2], the IC50, lay at 336 nM.

With `CNC(=O)c1ccc(OCC(=O)N2CCc3nc4sc(C)nn4c3C2c2ncc(C(=O)N(C)C)s2)c(Cl)n1` (stereo not shown) [Example 1.37.1, 2-(6-(2-((2-Chloro-6-(methylcarbamoyl)pyridin-3-yl)oxy)acetyl)-2-methyl-5,6,7,8-tetra-hydro-[1,3,4]thiadiazolo[2′,3′:2,3]imidazo[4,5-c]pyridin-5-yl)-N,N-dimethylthiazole-5-carboxamide], the IC50 under setting [1] was determined as 176 nM.

In turn, `Cc1nn2c3c(nc2s1)CCN(C(=O)COc1ccc(C(=O)N(C)C)nc1Cl)C3c1cc(C(=O)N(C)C)cs1` (stereo not shown) [Example 1.9.5, 6-Chloro-5-(2-(5-(4-(dimethylcarbamoyl)thiophen-2-yl)-2-methyl-7,8-dihydro-[1,3,4]-thiadiazolo[2′,3′:2,3]imidazo[4,5-c]pyridin-6(5H)-yl)-2-oxoethoxy)-N,N-dimethyl-picolinamide] yielded an IC50 under setting [1] of 22 nM.

Take `Cc1nn2c3c(nc2s1)CCN(C(=O)COc1ccc(N(C)CC(F)(F)F)nc1Cl)C3c1cc(CN(C)C)cs1` (stereo not shown) [Example 1.8.5, 2-((2-chloro-6-(methyl(2,2,2-trifluoroethyl)amino)pyridine-3-yl)oxy)-1-(5-(4-((dimethylamino)methyl)thiophen-2-yl)-2-methyl-7,8-dihydro-[1,3,4]thiadiazolo[2′,3′:2,3]imidazo[4,5-c]pyridin-6(5H)-yl)ethanone]: the IC50 under setting [2] amounted to 25 nM.

In the case of `COC(=O)c1ccc(C2c3c(nc4sc(C)nn34)CCN2C(=O)COc2ccc(N3CCOCC3)nc2Cl)o1` (stereo not shown) [Example 1.26.1, Methyl 5-(6-(2-((2-chloro-6-morpholinopyridin-3-yl)oxy)acetyl)-2-methyl-5,6,7,8-tetrahydro-[1,3,4]thiadiazolo [2′,3′:2,3]imidazo[4,5-c]pyridin-5-yl)furan-2-carboxylate], the 50% inhibitory concentration (IC50) under setting [2] came out at 10 nM.

Under setting [2], `CCn1nc(C(=O)OC)cc1OCC(=O)N1CCc2nc3sc(C)nn3c2C1c1ccc(Cl)cc1F` (stereo not shown) [Example 1.4.31, Methyl 5-(2-(5-(4-chloro-2-fluorophenyl)-2-methyl-7,8-dihydro-[1,3,4]thiadiazolo[2′,3′:2,3]imidazo[4,5-c]pyridin-6(5H)-yl)-2-oxoethoxy)-1-ethyl-1H-pyrazole-3-carboxylate] came in with an IC50 of 40 nM.

For `CS(=O)(=O)Nc1ccc(OCC(=O)N2CCc3nc4sccn4c3C2c2ccc(Cl)cc2F)c(Cl)n1` (stereo not shown) [Example 6.4.8, N-(6-chloro-5-(2-(5-(4-chloro-2-fluorophenyl)-7,8-dihydrothiazolo[2′,3′:2,3]imidazo[4,5-c]pyridin-6(5H)-yl)-2-oxoethoxy)pyridin-2-yl)methanesulfonamide], the IC50 under setting [2] was 3 nM.

In turn, `Cc1nn2c3c(nc2s1)CCN(C(=O)COc1ccc(NS(C)(=O)=O)nc1Cl)C3c1cncs1` (stereo not shown) [Example 1.39.1, N-(6-chloro-5-(2-(2-methyl-5-(thiazol-5-yl)-7,8-dihydro-[1,3,4]thiadiazolo[2′,3′:2,3]imidazo[4,5-c]pyridin-6(5H)-yl)-2-oxoethoxy)pyridin-2-yl)methanesulfonamide] had an IC50 under setting [2] of 101 nM.

Regarding `O=C(COc1ccc(NS(=O)(=O)C2CC2)nc1Cl)N1CCc2nc3sccn3c2C1c1sccc1F` (stereo not shown) [Example 6.8.1, N-(6-chloro-5-(2-(5-(3-fluorothiophen-2-yl)-7,8-dihydro-thiazolo[2′,3′:2,3]imidazo[4,5-c]pyridin-6(5H)-yl)-2-oxoethoxy)pyridin-2-yl)cyclopropanesulfonamide], under setting [2], it took 15 nM to reach half-maximal inhibition (IC50).

Regarding `COC(=O)CCS(=O)(=O)c1ccc(OCC(=O)N2CCc3nc4sc(C)nn4c3C2c2ccc(Cl)cc2F)c(Cl)n1` (stereo not shown) [Example 1.4.11, Methyl 3-((6-chloro-5-(2-(5-(4-chloro-2-fluorophenyl)-2-methyl-7,8-dihydro-[1,3,4]thiadiazolo[2′,3′:2,3]imidazo[4,5-c]pyridin-6(5H)-yl)-2-oxoethoxy)pyridin-2-yl)sulfonyl)propanoate], the midpoint of inhibition under setting [1], the IC50, lay at 57 nM.

`CCc1nc(C)ccc1OCC(=O)N1CCc2nc3sc(C)nn3c2C1c1cnc(OC(F)F)cc1C` (stereo not shown) [Example 1.15.3, 1-(5-(6-(difluoromethoxy)-4-methylpyridin-3-yl)-2-methyl-7,8-dihydro-[1,3,4]thiadiazolo[2′,3′:2,3]imidazo[4,5c]pyridin-6(5H)-yl)-2-((2-ethyl-6-methylpyridin-3-yl)oxy)ethanone] came in with an IC50 under setting [2] of 156 nM.

`Cc1nn2c3c(nc2s1)CCN(C(=O)COc1ccc(N2CCOCC2)nc1Cl)C3c1csc(C2OCCO2)c1` (stereo not shown) [Example 1.85.1, 1-(5-(5-(1,3-dioxolan-2-yl)thiophen-3-yl)-2-methyl-7,8-dihydro-[1,3,4]thiadiazolo[2′,3′:2,3]imidazo[4,5-c]pyridin-6(5H)-yl)-2-((2-chloro-6-morpholinopyridin-3-yl)oxy)ethan-1-one] returned an IC50 under setting [2] of 13 nM.

Under setting [2], `CCc1nn2c3c(nc2s1)CCN(C(=O)COc1ccc(N2CCN(C)CC2)nc1Cl)C3c1ccc(Cl)cc1F` (stereo not shown) [Example 3.1.4, 1-(5-(4-chloro-2-fluorophenyl)-2-ethyl-7,8-dihydro-[1,3,4]thiadiazolo[2′,3′:2,3]imidazo[4,5-c]pyridin-6(5H)-yl)-2-((2-chloro-6-(4-methylpiperazin-1-yl)pyridin-3-yl)oxy)ethanone] displayed an IC50 of 10 nM.

As to `Cc1nn2c3c(nc2s1)CCN(C(=O)COc1ccc(N2CCOCC2)nc1Cl)C3c1csc(C(=O)O)c1` (stereo not shown) [Example 1.38.1, 4-(6-(2-((2-Chloro-6-morpholinopyridin-3-yl)oxy)acetyl)-2-methyl-5,6,7,8-tetrahydro-[1,3,4]thiadiazolo[2′,3′:2,3]imidazo[4,5-c]pyridin-5-yl)thiophene-2-carboxylic acid], inhibition under setting [1] was half-maximal at 113 nM (IC50).

Turning to `CS(=O)(=O)Nc1ccc(OCC(=O)N2CCc3nc4sc(C(F)(F)F)nn4c3C2c2ccc(Cl)cc2F)c(Cl)n1` (stereo not shown) [Example 5.1.1, N-(6-chloro-5-(2-(5-(4-chloro-2-fluorophenyl)-2-(trifluoromethyl)-7,8-dihydro-[1,3,4]thiadiazolo-[2′,3′:2,3]imidazo[4,5-c]pyridin-6(5H)-yl)-2-oxoethoxy)pyridin-2-yl)methanesulfonamide], the half-maximal inhibitory concentration (IC50) under setting [2] worked out at 50 nM.

For `CCc1nc(NS(C)(=O)=O)ccc1OCC(=O)N1CCc2nc3sc(C)nn3c2C1c1ccc(Cl)cc1F` (stereo not shown) [Example 1.4.51, N-(5-(2-(5-(4-chloro-2-fluorophenyl)-2-methyl-7,8-dihydro-[1,3,4]thiadiazolo[2′,3′:2,3]imidazo[4,5-c]-pyridin-6(5H)-yl)-2-oxoethoxy)-6-ethylpyridin-2-yl)methanesulfonamide], the IC50 under setting [2] amounted to 12 nM.

Molecule `Cc1cc(Cl)ccc1OCC(=O)N1CCc2nc3sccn3c2C1c1c(C)nn(C)c1C` (stereo not shown) [Example 6.15.3, 2-(4-chloro-2-methylphenoxy)-1-(5-(1,3,5-trimethyl-1H-pyrazol-4-yl)-7,8-dihydrothiazolo[2′,3′:2,3]imidazo[4,5-c]pyridin-6(5H)-yl)ethanone] displayed an IC50 under setting [2] of 20 nM.

For the origin of these results see US9765092B2, “Tricyclic piperidine compounds” (ACTELION PHARMACEUTICALS LTD, priority 2013, dated 2017).
